The values that follow come from PMC12366525, “Characterization of allosteric modulators that disrupt androgen receptor co-activator protein-protein interactions to alter transactivation–Drug leads for metastatic castration resistant prostate cancer” (SLAS discovery : advancing life sciences R & D, 2023).

Common to all, as to type: cell-based
Series [1] in a line: M2H viability counter screen. Conditions: human, HEK 293 cells; cytotoxicity counter screen; read-out: M2H viability CS GI50. On the technique in general: The purpose of a counterscreen is to sort out artefacts and off-target activity.
Series [2] concerns the target T1, AR (Homo sapiens, UniProt P10275, T878A).
T1 construct: DHT-induced full length AR directed TA; endogenous in cells; host or cells: C4–2 castration resistant prostate cancer cells
T1 sequence (P10275 1-920 T878A): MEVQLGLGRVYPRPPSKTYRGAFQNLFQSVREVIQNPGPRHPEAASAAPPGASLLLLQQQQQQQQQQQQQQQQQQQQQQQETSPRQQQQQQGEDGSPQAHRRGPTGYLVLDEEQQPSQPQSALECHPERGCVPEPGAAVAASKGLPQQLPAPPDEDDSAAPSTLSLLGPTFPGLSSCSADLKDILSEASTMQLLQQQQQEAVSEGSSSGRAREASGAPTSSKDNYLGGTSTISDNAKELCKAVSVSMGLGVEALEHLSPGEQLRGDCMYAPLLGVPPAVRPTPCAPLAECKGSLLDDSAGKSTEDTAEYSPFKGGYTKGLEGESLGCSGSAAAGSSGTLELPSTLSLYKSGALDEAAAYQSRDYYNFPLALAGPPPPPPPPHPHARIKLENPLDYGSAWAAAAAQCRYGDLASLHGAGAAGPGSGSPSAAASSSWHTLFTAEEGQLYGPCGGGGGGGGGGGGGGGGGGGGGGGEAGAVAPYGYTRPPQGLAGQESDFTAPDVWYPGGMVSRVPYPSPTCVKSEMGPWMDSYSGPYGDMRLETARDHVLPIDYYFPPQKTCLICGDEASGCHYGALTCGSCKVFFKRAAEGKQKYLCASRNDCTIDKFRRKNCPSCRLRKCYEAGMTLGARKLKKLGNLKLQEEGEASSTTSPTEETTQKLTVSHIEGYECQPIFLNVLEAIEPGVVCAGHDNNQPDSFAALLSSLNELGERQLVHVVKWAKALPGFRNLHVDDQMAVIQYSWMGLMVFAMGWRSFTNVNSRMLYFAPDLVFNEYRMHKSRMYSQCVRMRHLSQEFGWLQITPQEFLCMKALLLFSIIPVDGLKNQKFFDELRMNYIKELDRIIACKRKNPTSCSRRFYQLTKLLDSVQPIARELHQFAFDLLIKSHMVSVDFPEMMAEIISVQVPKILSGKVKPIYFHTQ
Description: Western blotting cellular thermal shift assay for AR in C4–2 cells. Conditions: 1 h at 37 °C prior to heat shock at 46 °C, hits and enzalutamide 20 μM, DHT 10 nM. The procedure:
C4–2 cells were harvested by trypsinization, washed 1x by centrifugation at 270 × g for 5 min and resuspension in PBS, counted, centrifugated at 270 × g for 5 min and resuspended at 7 × 10 [6] cells per mL in Opti-MEM medium (Gibco, Gaithersburg, MD). 50 μL of C4–2 cell suspension (3.5 × 10 [5] cells) were then transferred to PCR tubes that were placed in a T-100 thermocycler (BioRad, Hercules, CA) and a 2 °C interval temperature step gradient from 37 °C to 53 °C was applied. Cells were maintained at each step of the temperature gradient for 5 min and then tubes were withdrawn and placed on ice. 50 μL of cell lysis buffer, 500 mM NaCl, 1% NP-40, 1x protease inhibitor cocktail in PBS were added to the heat shocked cell suspensions in PCR tubes and placed on ice for an additional 30 min. […] 45 μL of cell lysis supernatants were mixed with 15 μL of 5x SDS-PAGE sample buffer and placed in a heat block at 100 °C for 5 min. The protein constituents of heat shocked C4–2 cell lysis supernatants were separated by SDS-PAGE on 8% separating gels, transferred to nitrocellulose membranes that were blocked for 1 h at room temperature in 5% non-fat milk in TBST, and then probed overnight at 4 °C with a 1:1000 dilution of either rabbit anti-AR (Cell Signaling, Danvers, MA) or rabbit anti-TIF2 (Bethyl Laboratories, Waltham, MA) primary antibodies in TBST containing 5% non-fat milk. Membranes were then washed 3x in TBST buffer for 10 min, then incubated with a 1:10,000 dilution of the goat anti-rabbit IgG HRP conjugated secondary antibody (Invitrogen, Carlsbad,CA) in TBST containing 5% non-fat milk for 1 h at room temperature. Western blots were then washed 3x in TBST buffer and developed with Pierce ECL western blotting substrate. Images of ECL western blots were acquired on an iBright 1500 imaging system and quantified using the iBright image analysis software.
In general terms: A western blot detects proteins with antibodies after separation by electrophoresis.

In series [3] the test system is PC cell lines positive (LNCaP, C4–2, & 22Rv1 cells) or negative (PC-3 & DU-145) for AR. The series is described as follows: Prostate cancer cell line growth inhibition assays, panel statements. Conditions: 72 h. Here is the method:
(§1) The PC-3, DU-145, LNCaP, C4–2, and 22Rv1 PC cell line growth inhibition assays have been described previously. On day 1, each PC cell line was harvested, counted, and seeded into two 384-well assay plates, a time zero (T0) and a time 72 h (T72) plate. PC cell lines were all seeded at 1000 cells per well in 45 μL of tissue culture media in uncoated white clear bottom 384-well assay plates (VWR, # 82050–076) using a Matrix electronic multichannel pipette (Thermo Fisher Scientific, Waltham, MA) and cultured overnight at 37 °C, 5% CO2, and 95% humidity. On day 2, 25 μL of the Cell Titer Glo (CTG) (Promega Corporation, Madison, WI) detection reagent was dispensed into the wells of the T0 assay plate using a Matrix electronic multichannel pipette, and the RLUs were captured on the SpectraMax M5e (Molecular Devices LLC, Sunnyvale, CA) microtiter plate reader. Also on day 2, 5 μL of compounds were transferred into the test wells of the T72 384-well assay plates which were returned to the incubator for 72 h. Control wells received DMSO alone. On day 5, 25 μL of the CTG detection reagent was dispensed into the wells of the T72 assay plate using a Matrix electronic multichannel pipette, and the RLU’s were captured on the SpectraMax M5e microtiter plate reader platform.
(§2) In 384-well assays, DMSO minimum (n = 32) and maximum (n = 32) plate control wells were utilized to calculate signal-to-background ratios (S:B) and Z’-factor coefficient assay performance quality control statistics, and to normalize the signals of compound treated wells and to represent 0% and 100% respectively. For the 96-well AR-LBD H^3-DHT radioligand binding assay, eight minimum and maximum plate control wells were utilized to normalize the data. For the PC cell line growth inhibition assays we used the DMSO control data from the T0 and T72 assay plates to assess the dynamic range of the T0 to T72 cell growth, and to calculate S:B ratios and Z’-factor coefficient statistics for the assay signal window (T0 to T72). To normalize the 72 h compound exposure PC growth inhibition data, the signals from the compound treated wells were processed and expressed as% of the T72 DMSO plate controls. IC50 and GI50 values for each of the bioassays were calculated using Graph-Pad Prism 9 software to plot and fit data to curves using the Sigmoidal dose response variable slope equation Y = Bottom + [Top-Bottom]/ [1 + 10^^(LogEC50-X)*HillSlope].

Series [4] has as its system LNCaP cells. The series is described as follows: Prostate cancer cell line growth inhibition assay, LNCaP. Conditions: 72 h, read-out: LNCap GI50 (AR+). The procedure: as §1, §2
The mark [5] stands for this setting: LNCaP, C4–2, 22Rv1, read-out: GI50s in AR positive PC cell lines.

“Also recorded” adds a separate entry of the source. Like-named read-outs stand apart in the source and are kept apart here. Where only a bound is given, the exact number is not on record here.

For `Cc1ccccc1-c1cc(O)c2c(c1)CN(c1nc(C(N)=O)cs1)CCO2` [S1–1], the GI50 in series [1] was 58.6 µM; in series [3] (setting [5]), 29 to 56 µM; in series [4] (Homo sapiens, LNCaP), 28.9 µM. The “Effect on AR thermal stability, western blot CETSA” value (shortened to “Effect on AR thermal stability”) in series [2] is given as “did not stabilize AR, but blocked DHT-enhanced AR stabilization; also recorded: only partially blocked DHT-enhanced AR stabilization”.

Consider `Cc1ccccc1-c1cc(O)c2c(c1)CN(c1nccs1)CCO2` [S1–3], for which, in series [3], the “Cytotoxicity in AR positive relative to AR negative PC cell lines” value is recorded as “exhibited differential cytotoxicity in AR positive PC cell lines”. In addition, the GI50 in series [4] amounted to 43.4 µM.

As to `Cc1nsc(NC(=O)N2CCC(Sc3ccccc3C)CC2)n1` [S2–6], the GI50 is > 100 µM in series [1]; > 100 µM in series [3] (Homo sapiens, PC-3, DU-145, read-out: GI50s in AR negative PC cell lines); 14 to 19 µM in series [3] (setting [5]); 19.2 µM in series [4] (Homo sapiens, LNCaP). The “Effect on AR thermal stability” value in series [2] was “did not stabilize AR, but blocked DHT-enhanced AR stabilization; also recorded: blocked DHT-enhanced AR thermal stabilization below DMSO baseline levels”. For the same molecule, the “Cytotoxicity in AR positive relative to AR negative PC cell lines” value in series [3] is listed as “exhibited differential cytotoxicity in AR positive PC cell lines”.

As to `Cc1c(-c2ccccc2F)[nH]c2ccc(CNC(=O)CCc3cn[nH]c3)cc12` [S3–11], the GI50 was 69.2 µM in series [1] and 7.41 µM in series [4] (Homo sapiens, LNCaP). For the same molecule, the “Effect on AR thermal stability” value in series [2] is “did not stabilize AR, but blocked DHT-enhanced AR stabilization; also recorded: only partially blocked DHT-enhanced AR stabilization”. For the same molecule, the “Cytotoxicity in AR positive relative to AR negative PC cell lines” value in series [3] was “exhibited differential cytotoxicity in AR positive PC cell lines relative to AR negative cell lines”.

Consider `Cc1c(-c2ccccc2F)[nH]c2ccc(CNC(=O)CCc3cnccn3)cc12` [S3–12], for which the GI50 in series [1] is > 100 µM; in series [4] (Homo sapiens, LNCaP) it was 1.92 µM. Further, in series [3], the “Cytotoxicity in AR positive relative to AR negative PC cell lines” value was “roughly equipotent against all 5 PC cell lines”.

`CC(=O)NCCC(=O)NCc1ccc2[nH]c(-c3ccccc3F)c(C)c2c1` [S3–13]: the GI50 in series [1] was > 100 µM; in series [4] (Homo sapiens, LNCaP), 67.2 µM. Also, the “Cytotoxicity in AR positive relative to AR negative PC cell lines” value in series [3] is recorded as “roughly equipotent against all 5 PC cell lines”.

Take `Cc1c(-c2ccccc2F)[nH]c2ccc(CNC(=O)c3ccc(CO)o3)cc12` [S3–14]: the GI50 in series [1] is > 100 µM; in series [4] (Homo sapiens, LNCaP), 31.1 µM. Moreover, in series [3], the “Cytotoxicity in AR positive relative to AR negative PC cell lines” value is reported as “exhibited differential cytotoxicity in AR positive PC cell lines relative to AR negative cell lines”.

`Cc1c(-c2ccc(F)cc2)[nH]c2ccc(CNC(=O)c3ccc(CO)o3)cc12` [S3–15]: the GI50 in series [1] was > 100 µM; in series [4] (Homo sapiens, LNCaP) it was 14 µM. Moreover, the “Cytotoxicity in AR positive relative to AR negative PC cell lines” value in series [3] is listed as “roughly equipotent against all 5 PC cell lines”.
